Laboratory results published in ChEMBL document CHEMBL3044870, “Effect of clomazone on various market classes of dry beans” (Crop Prot, 2007).

Key:
Type in all cases: organism-based
Details in all cases: in vivo, other
[1] = tested on: Phaseolus vulgaris; assay: Phytotoxicity against Phaseolus vulgaris (kidney beans) assessed as plant height at 2232 g a.i./ha applied pre-emergence 1 to 2 days post-planting measured on day 28 post-emergence (reference value: 37 cm)
[2] = tested on: Phaseolus vulgaris; assay: Phytotoxicity against Phaseolus vulgaris (kidney beans) assessed as visual crop injury at 2232 g a.i./ha applied pre-emergence 1 to 2 days post-planting measured on day 14 post-emergence relative to control
[3] = tested on: Phaseolus vulgaris; assay: Phytotoxicity against Phaseolus vulgaris (otebo beans) assessed as shoot dry weight at 2232 g a.i./ha applied pre-emergence 1 to 2 days post-planting measured on day 42 post-emergence (reference value: 188 g/m)
[4] = tested on: Phaseolus vulgaris; assay: Phytotoxicity against Phaseolus vulgaris (black beans) assessed as shoot dry weight at 1116 g a.i./ha applied pre-emergence 1 to 2 days post-planting measured on day 42 post-emergence (reference value: 165 g/m)
[5] = tested on: Phaseolus vulgaris; assay: Phytotoxicity against Phaseolus vulgaris (dry beans) assessed as visual crop injury at 1116 g a.i./ha applied pre-emergence 1 to 2 days post-planting measured on day 7 post-emergence relative to control
[6] = tested on: Phaseolus vulgaris; assay: Phytotoxicity against Phaseolus vulgaris (pinto beans) assessed as shoot dry weight at 2232 g a.i./ha applied pre-emergence 1 to 2 days post-planting measured on day 42 post-emergence (reference value: 168 g/m)
[7] = tested on: Phaseolus vulgaris; assay: Phytotoxicity against Phaseolus vulgaris (cranberry beans) assessed as plant height at 2232 g a.i./ha applied pre-emergence 1 to 2 days post-planting measured on day 28 post-emergence (reference value: 37 cm)
[8] = tested on: Phaseolus vulgaris; assay: Phytotoxicity against Phaseolus vulgaris (white beans) assessed as visual crop injury at 2232 g a.i./ha applied pre-emergence 1 to 2 days post-planting measured on day 14 post-emergence relative to control
[9] = tested on: Phaseolus vulgaris; assay: Phytotoxicity against Phaseolus vulgaris (brown beans) assessed as plant height at 2232 g a.i./ha applied pre-emergence 1 to 2 days post-planting measured on day 28 post-emergence (reference value: 37 cm)
[10] = tested on: Phaseolus vulgaris; assay: Phytotoxicity against Phaseolus vulgaris (pinto beans) assessed as shoot dry weight at 1116 g a.i./ha applied pre-emergence 1 to 2 days post-planting measured on day 42 post-emergence (reference value: 168 g/m)
[11] = tested on: Phaseolus vulgaris; assay: Phytotoxicity against Phaseolus vulgaris (yellow eye beans) assessed as yield at 1116 g a.i./ha applied pre-emergence 1 to 2 days post-planting measured on day 42 post-emergence (reference value: 2.3 tons/ha)
[12] = tested on: Phaseolus vulgaris; assay: Phytotoxicity against Phaseolus vulgaris (yellow eye beans) assessed as yield at 2232 g a.i./ha applied pre-emergence 1 to 2 days post-planting measured on day 42 post-emergence (reference value: 2.3 tons/ha)
[13] = tested on: Phaseolus vulgaris; assay: Phytotoxicity against Phaseolus vulgaris (dry beans) assessed as visual crop injury at 1116 g a.i./ha applied pre-emergence 1 to 2 days post-planting measured on day 28 post-emergence relative to control
[14] = tested on: Phaseolus vulgaris; assay: Phytotoxicity against Phaseolus vulgaris (otebo beans) assessed as visual crop injury at 1116 g a.i./ha applied pre-emergence 1 to 2 days post-planting measured on day 14 post-emergence relative to control
[15] = tested on: Phaseolus vulgaris; assay: Phytotoxicity against Phaseolus vulgaris (yellow eye beans) assessed as shoot dry weight at 1116 g a.i./ha applied pre-emergence 1 to 2 days post-planting measured on day 42 post-emergence (reference value: 162 g/m)
[16] = tested on: Phaseolus vulgaris; assay: Phytotoxicity against Phaseolus vulgaris (otebo beans) assessed as plant height at 2232 g a.i./ha applied pre-emergence 1 to 2 days post-planting measured on day 28 post-emergence (reference value: 38 cm)
[17] = tested on: Phaseolus vulgaris; assay: Phytotoxicity against Phaseolus vulgaris (kidney beans) assessed as yield at 1116 g a.i./ha applied pre-emergence 1 to 2 days post-planting measured on day 42 post-emergence (reference value: 2.3 tons/ha)
[18] = tested on: Phaseolus vulgaris; assay: Phytotoxicity against Phaseolus vulgaris (pinto beans) assessed as plant height at 1116 g a.i./ha applied pre-emergence 1 to 2 days post-planting measured on day 28 post-emergence (reference value: 38 cm)
[19] = tested on: Phaseolus vulgaris; assay: Phytotoxicity against Phaseolus vulgaris (dry beans) assessed as visual crop injury at 2232 g a.i./ha applied pre-emergence 1 to 2 days post-planting measured on day 7 post-emergence relative to control
[20] = tested on: Phaseolus vulgaris; assay: Phytotoxicity against Phaseolus vulgaris (yellow eye beans) assessed as shoot dry weight at 2232 g a.i./ha applied pre-emergence 1 to 2 days post-planting measured on day 42 post-emergence (reference value: 162 g/m)
[21] = tested on: Phaseolus vulgaris; assay: Phytotoxicity against Phaseolus vulgaris (white beans) assessed as shoot dry weight at 1116 g a.i./ha applied pre-emergence 1 to 2 days post-planting measured on day 42 post-emergence (reference value: 175 g/m)
[22] = tested on: Phaseolus vulgaris; assay: Phytotoxicity against Phaseolus vulgaris (black beans) assessed as plant height at 1116 g a.i./ha applied pre-emergence 1 to 2 days post-planting measured on day 28 post-emergence (reference value: 34 cm)
[23] = tested on: Phaseolus vulgaris; assay: Phytotoxicity against Phaseolus vulgaris (black beans) assessed as yield at 2232 g a.i./ha applied pre-emergence 1 to 2 days post-planting measured on day 42 post-emergence (reference value: 3.6 tons/ha)
[24] = tested on: Phaseolus vulgaris; assay: Phytotoxicity against Phaseolus vulgaris (brown beans) assessed as plant height at 1116 g a.i./ha applied pre-emergence 1 to 2 days post-planting measured on day 28 post-emergence (reference value: 37 cm)
[25] = tested on: Phaseolus vulgaris; assay: Phytotoxicity against Phaseolus vulgaris (brown beans) assessed as shoot dry weight at 1116 g a.i./ha applied pre-emergence 1 to 2 days post-planting measured on day 42 post-emergence (reference value: 149 g/m)
[26] = tested on: Phaseolus vulgaris; assay: Phytotoxicity against Phaseolus vulgaris (pinto beans) assessed as plant height at 2232 g a.i./ha applied pre-emergence 1 to 2 days post-planting measured on day 28 post-emergence (reference value: 38 cm)
[27] = tested on: Phaseolus vulgaris; assay: Phytotoxicity against Phaseolus vulgaris (black beans) assessed as plant height at 2232 g a.i./ha applied pre-emergence 1 to 2 days post-planting measured on day 28 post-emergence (reference value: 34 cm)
[28] = tested on: Phaseolus vulgaris; assay: Phytotoxicity against Phaseolus vulgaris (brown beans) assessed as shoot dry weight at 2232 g a.i./ha applied pre-emergence 1 to 2 days post-planting measured on day 42 post-emergence (reference value: 149 g/m)
[29] = tested on: Phaseolus vulgaris; assay: Phytotoxicity against Phaseolus vulgaris (yellow eye beans) assessed as visual crop injury at 1116 g a.i./ha applied pre-emergence 1 to 2 days post-planting measured on day 14 post-emergence relative to control
[30] = tested on: Phaseolus vulgaris; assay: Phytotoxicity against Phaseolus vulgaris (kidney beans) assessed as shoot dry weight at 2232 g a.i./ha applied pre-emergence 1 to 2 days post-planting measured on day 42 post-emergence (reference value: 145 g/m)
[31] = tested on: Phaseolus vulgaris; assay: Phytotoxicity against Phaseolus vulgaris (otebo beans) assessed as plant height at 1116 g a.i./ha applied pre-emergence 1 to 2 days post-planting measured on day 28 post-emergence (reference value: 38 cm)
[32] = tested on: Phaseolus vulgaris; assay: Phytotoxicity against Phaseolus vulgaris (pinto beans) assessed as visual crop injury at 2232 g a.i./ha applied pre-emergence 1 to 2 days post-planting measured on day 14 post-emergence relative to control

Question: For CC1(C)CON(Cc2ccccc2Cl)C1=O [CLOMAZONE], which Activity [1] is on record?
Answer: 33 cm

Question: And the Activity [2]?
Answer: 10%

Question: And the Activity [3]?
Answer: 168 g/m

Question: And the Activity [4]?
Answer: 167 g/m

Question: What about the Activity [5] of the same compound?
Answer: 5%

Question: And the Activity [6]?
Answer: 146 g/m

Question: And the Activity [7]?
Answer: 32 cm

Question: And the Activity [8]?
Answer: 6%

Question: And the Activity [9]?
Answer: 35 cm

Question: What about the Activity [10] of the same compound?
Answer: 166 g/m

Question: What about the Crop_yield [11] of the same compound?
Answer: 2.6 tons/ha

Question: And the Crop_yield [12]?
Answer: 2.5 tons/ha

Question: And the Activity [13]?
Answer: 1%

Question: What about the Activity [14] of the same compound?
Answer: 3%

Question: What about the Activity [15] of the same compound?
Answer: 160 g/m

Question: And the Activity [16]?
Answer: 34 cm

Question: And the Crop_yield [17]?
Answer: 2.3 tons/ha

Question: What about the Activity [18] of the same compound?
Answer: 36 cm

Question: And the Activity [19]?
Answer: 11%

Question: And the Activity [20]?
Answer: 130 g/m

Question: And the Activity [21]?
Answer: 174 g/m

Question: What about the Activity [22] of the same compound?
Answer: 34 cm

Question: And the Crop_yield [23]?
Answer: 3.3 tons/ha

Question: And the Activity [24]?
Answer: 35 cm

Question: What about the Activity [25] of the same compound?
Answer: 139 g/m

Question: And the Activity [26]?
Answer: 32 cm

Question: And the Activity [27]?
Answer: 30 cm

Question: What about the Activity [28] of the same compound?
Answer: 143 g/m

Question: What about the Activity [29] of the same compound?
Answer: 6%

Question: What about the Activity [30] of the same compound?
Answer: 116 g/m

Question: What about the Activity [31] of the same compound?
Answer: 37 cm

Question: What about the Activity [32] of the same compound?
Answer: 11%
